Measured values published in ChEMBL document CHEMBL1909046, “DrugMatrix in vitro pharmacology data”.

How the values were obtained:
[1] = target: Platelet-activating factor receptor (Homo sapiens, UniProt P25105); format: tissue-based; further: in other assays of this panel Not Active means under 50% inhibition at 10 µM
[2] = target: Receptor tyrosine-protein kinase erbB-2 (Homo sapiens, UniProt P04626); test: biochemical; format: cell-based, Insect cells; conditions: insect cells;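 further: inhibition of HER2 kinase enzyme activity, measured with Poly(Glu:Tyr) as the phosphorylation substrate; in other assays of this panel Not Active means under 50% inhibition at 10 µM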
[3] = target: Insulin receptor (Rattus norvegicus, UniProt P15127); format: cell membranes, Wistar, Liver, Membrane; further: in other assays of this panel Not Active means under 50% inhibition at 10 µM
[4] = target: T1, Caspase-1 (Homo sapiens, UniProt P29466); design: species or system Escherichia coli;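 further: Caspase-1 enzyme inhibition assay with a peptide substrate; in other assays of this panel Not Active means under 50% inhibition at 10 µM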
T1 sequence (P29466 whole entry): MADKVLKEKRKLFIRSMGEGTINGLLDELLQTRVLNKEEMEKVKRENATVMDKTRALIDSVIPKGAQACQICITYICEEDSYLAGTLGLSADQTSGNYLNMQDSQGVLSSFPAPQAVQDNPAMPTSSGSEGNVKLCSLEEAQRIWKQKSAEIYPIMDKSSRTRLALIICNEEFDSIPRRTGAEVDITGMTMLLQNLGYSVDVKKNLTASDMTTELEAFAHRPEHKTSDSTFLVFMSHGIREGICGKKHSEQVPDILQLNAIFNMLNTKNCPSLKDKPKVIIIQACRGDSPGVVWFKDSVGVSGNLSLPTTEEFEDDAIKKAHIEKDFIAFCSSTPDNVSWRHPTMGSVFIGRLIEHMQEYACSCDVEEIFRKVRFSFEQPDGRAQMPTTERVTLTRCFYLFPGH

[5] = DRUGMATRIX: Sigma2 radioligand binding (ligand: [3H] Ifenprodil); format: cell membranes, Rattus norvegicus, Wistar, Brain, Membrane; conditions: Not Active = under 50% inhibition at 10 µM
[6] = target: Epidermal growth factor receptor (Homo sapiens, UniProt P00533); test: DRUGMATRIX: Protein Tyrosine Kinase, EGF Receptor enzyme inhibition (substrate: Poly(Glu:Tyr)); format: cell-based, Insect cells; conditions: Not Active = under 50% inhibition at 10 µM
[7] = target: T2, Neuropeptide Y receptor type 1 (Homo sapiens, UniProt P25929); format: cell membranes, Membrane; conditions: sk-n-mc; further: in other assays of this panel Not Active means under 50% inhibition at 10 µM
T2 sequence (P25929 whole entry): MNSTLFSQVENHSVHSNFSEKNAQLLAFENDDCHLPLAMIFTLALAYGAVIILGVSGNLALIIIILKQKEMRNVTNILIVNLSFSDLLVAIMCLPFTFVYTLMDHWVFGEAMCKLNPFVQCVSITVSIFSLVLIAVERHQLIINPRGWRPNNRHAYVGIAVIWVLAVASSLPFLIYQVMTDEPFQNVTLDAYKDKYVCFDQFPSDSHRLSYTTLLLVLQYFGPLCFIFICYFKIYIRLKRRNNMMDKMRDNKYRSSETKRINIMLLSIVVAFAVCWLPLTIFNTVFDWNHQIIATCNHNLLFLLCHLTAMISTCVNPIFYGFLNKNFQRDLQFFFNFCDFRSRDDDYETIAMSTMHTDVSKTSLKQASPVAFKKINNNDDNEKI

[8] = target: Voltage-gated inwardly rectifying potassium channel KCNH2 (Homo sapiens, UniProt Q12809); conditions: hek293; further: in other assays of this panel Not Active means under 50% inhibition at 10 µM
Chain of Voltage-gated inwardly rectifying potassium channel KCNH2 (Q12809 whole entry): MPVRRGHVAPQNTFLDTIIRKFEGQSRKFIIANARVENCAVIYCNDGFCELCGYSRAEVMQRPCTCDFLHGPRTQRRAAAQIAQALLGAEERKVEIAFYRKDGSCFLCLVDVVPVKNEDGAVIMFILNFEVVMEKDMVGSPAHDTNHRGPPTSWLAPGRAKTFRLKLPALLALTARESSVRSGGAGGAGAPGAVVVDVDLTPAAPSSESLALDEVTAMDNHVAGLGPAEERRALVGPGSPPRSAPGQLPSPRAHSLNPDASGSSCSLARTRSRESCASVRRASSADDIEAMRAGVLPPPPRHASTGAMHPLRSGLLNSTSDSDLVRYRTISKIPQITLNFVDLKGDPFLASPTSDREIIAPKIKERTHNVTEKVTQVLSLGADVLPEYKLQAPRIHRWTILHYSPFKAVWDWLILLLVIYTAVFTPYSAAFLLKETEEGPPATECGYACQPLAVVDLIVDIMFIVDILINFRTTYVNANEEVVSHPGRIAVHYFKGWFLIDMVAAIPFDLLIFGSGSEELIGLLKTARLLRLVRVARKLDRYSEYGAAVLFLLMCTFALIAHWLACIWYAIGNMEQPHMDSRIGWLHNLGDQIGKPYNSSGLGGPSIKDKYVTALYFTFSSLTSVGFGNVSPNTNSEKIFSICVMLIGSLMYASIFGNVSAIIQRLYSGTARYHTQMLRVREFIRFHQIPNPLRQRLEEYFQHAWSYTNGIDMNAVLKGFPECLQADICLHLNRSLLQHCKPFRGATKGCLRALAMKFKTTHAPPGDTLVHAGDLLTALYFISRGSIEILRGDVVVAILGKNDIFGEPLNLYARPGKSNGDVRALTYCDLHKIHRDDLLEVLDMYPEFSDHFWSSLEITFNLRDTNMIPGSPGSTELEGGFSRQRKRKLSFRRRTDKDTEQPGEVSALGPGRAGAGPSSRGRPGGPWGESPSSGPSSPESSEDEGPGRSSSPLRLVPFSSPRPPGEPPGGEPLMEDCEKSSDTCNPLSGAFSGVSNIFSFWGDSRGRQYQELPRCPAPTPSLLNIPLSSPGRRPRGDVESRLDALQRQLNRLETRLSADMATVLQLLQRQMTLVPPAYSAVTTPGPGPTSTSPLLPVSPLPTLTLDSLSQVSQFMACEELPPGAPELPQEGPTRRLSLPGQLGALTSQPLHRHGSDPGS

Chain of Platelet-activating factor receptor (P25105 whole entry): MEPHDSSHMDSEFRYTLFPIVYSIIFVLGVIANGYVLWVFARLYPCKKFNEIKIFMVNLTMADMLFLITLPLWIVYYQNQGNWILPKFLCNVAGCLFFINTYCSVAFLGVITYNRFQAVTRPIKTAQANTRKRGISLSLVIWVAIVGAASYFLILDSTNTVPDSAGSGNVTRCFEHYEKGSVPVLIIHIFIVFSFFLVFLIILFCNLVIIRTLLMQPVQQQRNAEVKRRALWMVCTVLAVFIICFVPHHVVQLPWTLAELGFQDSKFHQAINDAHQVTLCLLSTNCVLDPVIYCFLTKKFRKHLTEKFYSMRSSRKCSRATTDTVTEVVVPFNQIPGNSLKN
Chain of Insulin receptor (P15127 27-759 limits assumed): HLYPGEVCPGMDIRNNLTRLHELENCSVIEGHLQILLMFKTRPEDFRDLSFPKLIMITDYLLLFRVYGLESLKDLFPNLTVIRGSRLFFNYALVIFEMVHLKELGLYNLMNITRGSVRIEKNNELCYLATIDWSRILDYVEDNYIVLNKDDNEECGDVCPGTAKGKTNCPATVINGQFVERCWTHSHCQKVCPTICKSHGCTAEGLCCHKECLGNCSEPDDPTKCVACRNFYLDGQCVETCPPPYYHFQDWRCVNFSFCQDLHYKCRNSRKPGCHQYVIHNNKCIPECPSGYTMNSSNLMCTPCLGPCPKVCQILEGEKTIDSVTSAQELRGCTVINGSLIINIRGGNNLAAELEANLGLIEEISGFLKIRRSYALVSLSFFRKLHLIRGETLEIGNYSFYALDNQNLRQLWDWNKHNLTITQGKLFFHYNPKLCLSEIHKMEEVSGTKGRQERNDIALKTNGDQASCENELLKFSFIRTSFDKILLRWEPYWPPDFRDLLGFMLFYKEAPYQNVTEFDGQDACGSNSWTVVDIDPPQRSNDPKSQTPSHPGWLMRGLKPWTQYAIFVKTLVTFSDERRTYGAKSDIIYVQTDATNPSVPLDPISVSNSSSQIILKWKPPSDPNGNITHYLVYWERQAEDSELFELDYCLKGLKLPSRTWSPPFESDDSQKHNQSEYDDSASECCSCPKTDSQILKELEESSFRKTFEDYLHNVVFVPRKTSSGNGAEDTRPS
Chain of Insulin receptor (P15127 764-1383 limits assumed): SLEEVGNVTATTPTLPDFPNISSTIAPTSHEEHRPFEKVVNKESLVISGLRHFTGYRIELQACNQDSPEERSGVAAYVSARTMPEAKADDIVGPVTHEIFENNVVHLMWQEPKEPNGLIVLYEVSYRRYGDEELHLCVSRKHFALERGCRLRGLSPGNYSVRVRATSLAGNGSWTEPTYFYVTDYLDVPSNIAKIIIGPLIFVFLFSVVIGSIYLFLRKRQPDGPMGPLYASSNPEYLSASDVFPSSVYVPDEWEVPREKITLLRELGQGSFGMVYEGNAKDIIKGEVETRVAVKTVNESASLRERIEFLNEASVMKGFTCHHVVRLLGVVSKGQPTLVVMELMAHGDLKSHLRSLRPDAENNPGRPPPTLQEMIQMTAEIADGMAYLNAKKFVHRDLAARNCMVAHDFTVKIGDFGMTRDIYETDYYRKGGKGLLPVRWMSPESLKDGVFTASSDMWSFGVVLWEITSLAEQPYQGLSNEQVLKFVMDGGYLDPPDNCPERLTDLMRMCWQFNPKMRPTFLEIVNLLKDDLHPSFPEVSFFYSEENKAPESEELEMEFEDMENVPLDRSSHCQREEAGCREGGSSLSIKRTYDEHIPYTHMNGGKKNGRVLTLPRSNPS

CCCOc1ccc(C(=O)OCCN(CC)CC)cc1N [PROPARACAINE]
IC50 [1]: Not Active
IC50 [2]: Not Active
IC50 [3]: Not Active
IC50 [4]: Not Active
IC50 [5]: Not Active
Ki [5]: Not Active
IC50 ([6]; insect cells): Not Active
IC50 [7]: Not Active
IC50 [8]: Not Active
Ki [8]: Not Active

CC(C)c1cccc(C(C)C)c1O [PROPOFOL]
IC50 [1]: Not Active
IC50 [2]: Not Active
IC50 [3]: Not Active
IC50 [4]: Not Active
IC50 [5]: Not Active
Ki [5]: Not Active
IC50 ([6]; insect cells): Not Active
IC50 [7]: Not Active
IC50 [8]: Not Active
Ki [8]: Not Active

C[C@@H]1O[C@@H](O[C@@H]2C=C3CC[C@@H]4[C@H](CC[C@]5(C)[C@@H](c6ccc(=O)oc6)CC[C@]45O)[C@@]3(C)CC2)[C@H](O)[C@H](O)[C@H]1O [PROSCILLARIDIN]
IC50 [1]: Not Active
IC50 [2]: Not Active
IC50 [3]: Not Active
IC50 [4]: Not Active
IC50 [5]: Not Active
Ki [5]: Not Active
IC50 ([6]; insect cells): Not Active
IC50 [7]: Not Active
IC50 [8]: Not Active
Ki [8]: Not Active

Oc1cccc(O)c1O [PYROGALLOL]
IC50 [1]: Not Active
IC50 [2]: Not Active
IC50 [3]: Not Active
IC50 [4]: Not Active
IC50 [5]: Not Active
Ki [5]: Not Active
IC50 ([6]; read-out: IC50): 1230 nM
IC50 [7]: Not Active
IC50 [8]: Not Active
Ki [8]: Not Active

AURANOFIN
IC50 [1]: Not Active
Ki [1]: Not Active
IC50 [2]: Not Active
Ki [2]: Not Active
IC50 [3]: Not Active
Ki [3]: Not Active
IC50 [4]: Not Active
Ki [4]: Not Active
IC50 [5]: Not Active
Ki [5]: Not Active
IC50 ([6]; insect cells): Not Active
Ki ([6]; insect cells): Not Active
IC50 [7]: Not Active
Ki [7]: Not Active
IC50 [8]: Not Active
Ki [8]: Not Active

GADOPENTETATE DIMEGLUMINE
IC50 [1]: Not Active
Ki [1]: Not Active
IC50 [2]: Not Active
Ki [2]: Not Active
IC50 [3]: Not Active
Ki [3]: Not Active
IC50 [4]: Not Active
Ki [4]: Not Active
IC50 [5]: Not Active
Ki [5]: Not Active
IC50 ([6]; insect cells): Not Active
Ki ([6]; insect cells): Not Active
IC50 [7]: Not Active
Ki [7]: Not Active
IC50 [8]: Not Active
Ki [8]: Not Active

GENTAMICIN
IC50 [1]: Not Active
Ki [1]: Not Active
IC50 [2]: Not Active
Ki [2]: Not Active
IC50 [3]: Not Active
Ki [3]: Not Active
IC50 [4]: Not Active
Ki [4]: Not Active
IC50 [5]: Not Active
Ki [5]: Not Active
IC50 ([6]; insect cells): Not Active
Ki ([6]; insect cells): Not Active
IC50 [7]: Not Active
Ki [7]: Not Active
IC50 [8]: Not Active
Ki [8]: Not Active

GRAMICIDIN
IC50 [1]: Not Active
Ki [1]: Not Active
IC50 [2]: Not Active
Ki [2]: Not Active
IC50 [3]: Not Active
Ki [3]: Not Active
IC50 [4]: Not Active
Ki [4]: Not Active
IC50 [5]: Not Active
Ki [5]: Not Active
IC50 ([6]; insect cells): Not Active
Ki ([6]; insect cells): Not Active
IC50 [7]: Not Active
Ki [7]: Not Active
IC50 [8]: Not Active
Ki [8]: Not Active

NYSTATIN
IC50 [1]: Not Active
Ki [1]: Not Active
IC50 [2]: Not Active
Ki [2]: Not Active
IC50 [3]: Not Active
Ki [3]: Not Active
IC50 [4]: Not Active
Ki [4]: Not Active
IC50 [5]: Not Active
Ki [5]: Not Active
IC50 ([6]; insect cells): Not Active
Ki ([6]; insect cells): Not Active
IC50 [7]: Not Active
Ki [7]: Not Active
IC50 [8]: Not Active
Ki [8]: Not Active
